Holding throughout (assay type): cell-based
The subject of test [1] is Proteus vulgaris GN 76/C.1/3. In words: MIC on strain not producing beta-lactamase, Proteus vulgaris GN 76/C.1/3 (Table IV). As to conditions: GN76, not producing beta-lactamases. Here is the method: (§1) To evaluate the stability of these products towards beta-lactamases, their MIC was determined on isogenic strains producing and not producing beta-lactamases.
(§2) The results are expressed in μg/ml in Table IV.

In the next test the test system is Pseudomonas RL 112. In words: MIC, in vitro dilution method, Pseudomonas RL 112 (Table III). To be noted: RL112. The method, boiled down: (§3)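 Dilution-method MIC, in vitro, μg/ml.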
The subject of the next test is Escherichia coli SOL 90. Description: MIC, in vitro dilution method, Escherichia coli SOL 90 (Table III). To be noted: SOL90. The method, boiled down: as §3
The test system of another test is Escherichia coli 255. Description: MIC on beta-lactamase producing strain Escherichia coli 255 (Table IV). To be noted: Escherichia coli 255, producing beta-lactamases; read-out: MIC. Here is the method: as §1, §2
Test [2] has as its system Serrtia liquefaciens SL 1326 S. Description: MIC on strain not producing beta-lactamase, Serratia liquefaciens SL 1326 S (Table IV). As to conditions: SL1326S, not producing beta-lactamases. Here is the method: as §1, §2
For test [3], the system named is Proteus vulgaris RL 99 bis. In words: MIC, in vitro dilution method, Proteus vulgaris RL 99 bis (Table III). As to conditions: RL99BIS. The method, boiled down:
as §3

For another test, the system named is Escherichia coli 255/L.7. Description: MIC on strain not producing beta-lactamase, Escherichia coli 255/L.7 (Table IV). To be noted: Escherichia coli 255/L.7 *, not producing beta-lactamases; read-out: MIC. As for the experimental part: as §1, §2
The next test deals with Citrobacter RL 49. In words: MIC, in vitro dilution method, Citrobacter RL 49 (Table III). As to conditions: RL49. An outline of the steps:
as §3

In the next test the test system is Serratia RL 72. In words: MIC, in vitro dilution method, Serratia RL 72 (Table III). As to conditions: RL72. An outline of the steps:
as §3

A further test has as its system Klebsiella RO 30. In words: MIC, in vitro dilution method, Klebsiella RO 30 (Table III). As to conditions: RO30. An outline of the steps: as §3
Test [4] concerns Proteus vulgaris GN 76/C.1. In words: MIC on beta-lactamase producing strain Proteus vulgaris GN 76/C.1 (Table IV). As to conditions: GN76. Here is the method: as §1, §2
Test [5] deals with Serrtia liquefaciens SL/326 A. Description: MIC on beta-lactamase producing strain Serratia liquefaciens SL/326 A (Table IV). Here is the method: as §1, §2
For a further test, the system named is Enterobacter RO 154. Description: MIC, in vitro dilution method, Enterobacter RO 154 (Table III). To be noted: RO154. The method, boiled down: as §3
The mark [6] stands for this setting: Escherichia coli SOL 90, dilution method, read-out: MIC.
[7] abbreviates: Proteus vulgaris RL 99 bis, dilution method, read-out: MIC.
Setting [8] is: Citrobacter RL 49, dilution method, read-out: MIC.
Where [9] appears, read: Klebsiella RO 30, dilution method, read-out: MIC.
The mark [10] stands for this setting: Proteus vulgaris GN 76/C.1, producing beta-lactamases, read-out: MIC.
Where [11] appears, read: Enterobacter RO 154, dilution method, read-out: MIC.

≈ marks a conversion by molar mass, not a printed value. Where two headings read alike, the source gives them in different places. Where only a bound is given, the exact number is not on record here.

Take `CC(C)(O/N=C(\C(=O)NC1C(=O)N2C(C(=O)O)=C(COC(=O)CCCCN)C[S+]([O-])C12)c1csc(N)n1)C(=O)O` (stereo not drawn) [41 967]: the MIC (in general, the lowest concentration found to suppress growth) was at most 0.12 µg/mL in test [1]; 4 µg/mL (≈ 6.66 µM) against Pseudomonas RL 112; 0.25 µg/mL (≈ 0.416 µM) with Escherichia coli SOL 90 (setting [6]); at most 0.12 µg/mL with Escherichia coli 255; at most 0.12 µg/mL in test [2]; at most 0.12 µg/mL in test [3] (setting [7]). The MIC is at most 0.12 µg/mL in the test with Escherichia coli 255/L.7; 0.5 µg/mL (≈ 0.832 µM) in the test with Citrobacter RL 49 (setting [8]); 0.5 µg/mL (≈ 0.832 µM) with Serratia RL 72; 0.25 µg/mL (≈ 0.416 µM) with Klebsiella RO 30 (setting [9]); at most 0.12 µg/mL in test [4] (setting [10]); 0.25 µg/mL (≈ 0.416 µM) in test [5]. For the same compound, the MIC in the test on Enterobacter RO 154 (setting [11]) amounted to 2 µg/mL (≈ 3.33 µM).
On to `CC(C)(ON=C(C(=O)NC1C(=O)N2C(C(=O)O)=C(COC(=O)C3CCCNC3)C[S+]([O-])C12)c1csc(N)n1)C(=O)O` (stereo not drawn) [42 022], for which the MIC in [1] is at most 0.12 µg/mL; against Pseudomonas RL 112, 4 µg/mL (≈ 6.53 µM); in the test with Escherichia coli SOL 90 (setting [6]), 0.5 µg/mL (≈ 0.816 µM); with Escherichia coli 255, 0.25 µg/mL (≈ 0.408 µM); in test [2], at most 0.12 µg/mL; in test [3] (setting [7]), at most 0.12 µg/mL. The MIC was 0.25 µg/mL (≈ 0.408 µM) in the test on Escherichia coli 255/L.7; 0.25 µg/mL (≈ 0.408 µM) in the test with Citrobacter RL 49 (setting [8]); 0.5 µg/mL (≈ 0.816 µM) against Serratia RL 72; 0.25 µg/mL (≈ 0.408 µM) with Klebsiella RO 30 (setting [9]); at most 0.12 µg/mL in test [4] (setting [10]); at most 0.12 µg/mL in [5]. Besides, in the test with Enterobacter RO 154 (setting [11]), the MIC was found to be 2 µg/mL (≈ 3.26 µM).
Take `CC(C)(O/N=C(\C(=O)NC1C(=O)N2C(C(=O)O)=C(COC(=O)c3cccc(CN)c3)C[S+]([O-])C12)c1csc(N)n1)C(=O)O` (stereo not drawn) [42 320]: the MIC is 0.125 µg/mL (≈ 0.197 µM) in [1]; 4 µg/mL (≈ 6.3 µM) against Pseudomonas RL 112; at most 0.125 µg/mL with Escherichia coli SOL 90 (Escherichia coli); 0.0625 µg/mL (≈ 0.0985 µM) in the test with Escherichia coli 255; at most 0.0312 µg/mL in test [2]; at most 0.125 µg/mL in test [3] (Proteus vulgaris). Moreover, the MIC with Escherichia coli 255/L.7 is 0.0625 µg/mL (≈ 0.0985 µM); against Citrobacter RL 49 (Citrobacter) it was at most 0.125 µg/mL; in the test on Serratia RL 72 it was 0.5 µg/mL (≈ 0.788 µM); against Klebsiella RO 30 (Klebsiella), at most 0.125 µg/mL; in test [4] (Proteus vulgaris) it was at most 0.0312 µg/mL; in [5], 0.125 µg/mL (≈ 0.197 µM). This compound gave an MIC against Enterobacter RO 154 (Enterobacter) of at most 0.125 µg/mL.
Turning to `CNCc1ccc(C(=O)OCC2=C(C(=O)O)N3C(=O)C(NC(=O)/C(=N\OC(C)(C)C(=O)O)c4csc(N)n4)C3[S+]([O-])C2)cc1` (stereo not drawn) [42 395], the MIC is at most 0.0312 µg/mL in [1]; 4 µg/mL (≈ 6.17 µM) with Pseudomonas RL 112; at most 0.125 µg/mL in the test with Escherichia coli SOL 90 (Escherichia coli); 0.0625 µg/mL (≈ 0.0964 µM) in the test with Escherichia coli 255; at most 0.0312 µg/mL in test [2]; at most 0.125 µg/mL in [3] (Proteus vulgaris). Further, the MIC with Escherichia coli 255/L.7 was 0.0625 µg/mL (≈ 0.0964 µM); with Citrobacter RL 49 (Citrobacter) it was at most 0.125 µg/mL; in the test on Serratia RL 72 it was 0.5 µg/mL (≈ 0.771 µM); against Klebsiella RO 30 (Klebsiella), at most 0.125 µg/mL; in test [4] (Proteus vulgaris), at most 0.0312 µg/mL; in [5], 0.125 µg/mL (≈ 0.193 µM). In the test with Enterobacter RO 154 (Enterobacter), this compound registered an MIC of at most 0.125 µg/mL.
As for `Cc1c(CN)cccc1C(=O)OCC1=C(C(=O)O)N2C(=O)C(NC(=O)/C(=N\OC(C)(C)C(=O)O)c3csc(N)n3)C2[S+]([O-])C1` (stereo not drawn) [42 456], the MIC in [1] was 0.125 µg/mL (≈ 0.193 µM); against Pseudomonas RL 112 it was 4 µg/mL (≈ 6.17 µM); in the test with Escherichia coli SOL 90 (setting [6]) it was 0.25 µg/mL (≈ 0.385 µM); with Escherichia coli 255 it was 0.0625 µg/mL (≈ 0.0964 µM); in test [2], 0.0625 µg/mL (≈ 0.0964 µM); in test [3] (Proteus vulgaris), at most 0.125 µg/mL. Moreover, the MIC in the test on Escherichia coli 255/L.7 is at most 0.0312 µg/mL; in the test with Citrobacter RL 49 (Citrobacter), at most 0.125 µg/mL; against Serratia RL 72, 0.5 µg/mL (≈ 0.771 µM); in the test on Klebsiella RO 30 (Klebsiella) it was at most 0.125 µg/mL; in test [4] (Proteus vulgaris), at most 0.0312 µg/mL; in [5], 0.25 µg/mL (≈ 0.385 µM). The compound also gave an MIC against Enterobacter RO 154 (Enterobacter) of at most 0.125 µg/mL.
Turning to `Cc1ccc(CN)c(C)c1C(=O)OCC1=C(C(=O)O)N2C(=O)C(NC(=O)/C(=N\OC(C)(C)C(=O)O)c3csc(N)n3)C2[S+]([O-])C1` (stereo not drawn) [42 457], the MIC in test [1] is 0.0625 µg/mL (≈ 0.0943 µM); with Pseudomonas RL 112 it was 8 µg/mL (≈ 12.1 µM); in the test on Escherichia coli SOL 90 (setting [6]), 0.5 µg/mL (≈ 0.754 µM); in the test with Escherichia coli 255 it was 0.125 µg/mL (≈ 0.189 µM); in [2], 0.0625 µg/mL (≈ 0.0943 µM); in [3] (Proteus vulgaris), at most 0.125 µg/mL. Also, the minimum inhibitory concentration (MIC) was at most 0.0312 µg/mL in the test on Escherichia coli 255/L.7; 0.25 µg/mL (≈ 0.377 µM) in the test with Citrobacter RL 49 (setting [8]); 0.5 µg/mL (≈ 0.754 µM) with Serratia RL 72; 0.25 µg/mL (≈ 0.377 µM) in the test on Klebsiella RO 30 (setting [9]); at most 0.0312 µg/mL in [4] (Proteus vulgaris); 0.0625 µg/mL (≈ 0.0943 µM) in test [5]. Further, the MIC in the test on Enterobacter RO 154 (setting [11]) stood at 0.25 µg/mL (≈ 0.377 µM).
